In article PMC5823406, “Vehicle development, pharmacokinetics and toxicity of the anti-invasive agent 4-fluoro-3’,4’,5’-trimethoxychalcone in rodents” (PLoS ONE, 2018):
Several values for one entry are separate records, joined by “and”; a condition that tells them apart may be missing. Equal values may be shown once.

Experiment: Whole-blood PK study (IV, IP and PO) in male CD-1 mice
Assay type: in vivo, mouse
Procedure: Nine male CD-1 mice (25–35 g) were obtained from Hilltop Labs. Duration of acclimation was at least two days. Animals were randomly assigned to the three dose groups (IV, PO, intraperitoneal (IP), N = 3 per group), healthy at the start of the trial, housed one per cage (conventional type with wood chip bedding material), identified by a cage label and maintained in a well-controlled temperature (20–24 C) and humidity (30%-70%) environment with 12 h light/dark cycles. Animals intended for IV dosing were fitted with a jugular vein cannula (JVC, procedure see rat plasma PK study above). The study was not blinded. Food was withheld from the animals for a minimum of 12 h prior to test article administration until 4 h post-dose. Water was offered ad libitum.
C16 was dosed in cassette together with two undisclosed compounds of similar chemical structure. The dose of each test article was 1 mg/kg (IV, JVC, 0.5 mg/mL) or 10 mg/kg (IP and PO gavage, 2 mg/mL). Two respective dosing solutions were prepared (protocol see above) containing 0.5 and 2 mg/mL of C16 (and equal concentrations of the other two test articles) in 20% DMSO / 10% (DMSO / Cremophor EL 1:1) / 70% H2O. Formulations were prepared one day prior to dosing and stored at 4 °C.
Blood samples were taken pre-dose and 5 (except for PO administration), 15, 30 min, 1, 2, 4, and 8 h after dosing. The samples were collected via the tail vein or by cardiac puncture (8 h time point). Blood (25 μL) was collected and pipetted into a tube with 25 μL heparinized water (1 μL of sodium heparin (1000 unit/ml) + 24 μL water) within 30 seconds of collection. The sample was pipetted up and down five times, immediately frozen on dry ice and stored at -60°C to -80°C until analyzed. No necropsy was performed.
Pharmacokinetic parameters were estimated by a non-compartmental model using WinNonlin (v5.2.1 or higher) software. The maximum plasma/blood concentrations (c0) after IV dosing were estimated by extrapolation of the first two time points back to t = 0. The maximum blood concentration (cmax) and the time to reach maximum blood drug concentration (tmax) after PO dosing were derived from the data. The area under the time-concentration curve (AUC) was calculated using the linear trapezoidal rule with calculation to the last quantifiable data point, and with extrapolation to infinity if applicable. Plasma/blood half-life (t1/2) was calculated from 0.693/slope of the terminal elimination phase. Mean residence time (MRT) was calculated by dividing the area under the moment curve (AUMC) by the AUC. Clearance (CL) was calculated from dose/AUC. Steady-state volume of distribution (Vss) was calculated from CL*MRT. Bioavailability was determined by dividing the individual dose-normalized PO AUC values by the respective average dose-normalized intravenous (IV) AUC value. Samples that were below the limit of quantification were not used in the calculation of averages, and were treated as zero for pharmacokinetic data analysis. […]
Sprague-Dawley rats at 10 mg/kg (in 100% DMSO). […]
c Bioavailability determined by dividing the individual dose normalized oral AUC last by the average dose normalized intravenous AUC last value. […]
The dosing solution was prepared as a cassette to contain all three test articles in the same solutions using a vehicle
consisting of 20% DMSO/10% (DMSO/Cremophor EL 1:1)/70% Milli-Q water.
Individual blood concentrations and pharmacokinetic parameters are shown in Table H through Table J. All data are
expressed as ng/mL of the free drug. Samples that were below the limit of quantification were not used in the
calculation of averages. Concentration versus time data are plotted in Fig D through Fig F.
Table H. Individual blood concentrations (ng/mL) and PK parameters for C16 after IV administration in male CD-1 mice at 1 mg/kg.
t (h) 0 (pre-dose) BLOQ BLOQ BLOQ
(1 picture or pasted object on this page, not shown here)

[1] = mouse blood, IP 10 mg/kg, individual animals 4-6, 10 mg/kg
[2] = mouse blood, IV 1 mg/kg, individual animals 1-3, 1 mg/kg
[3] = mouse blood, PO 10 mg/kg, individual animals 7-9, 10 mg/kg
[4] = whole blood, male CD-1 mouse, IP 10 mg/kg, average

SMILES: COc1cc(C(=O)/C=C/c2ccc(F)cc2)cc(OC)c1OC [C16, 4-fluoro-3’,4’,5’-trimethoxychalcone]
- Tmax (male, CD-1, whole blood, mouse blood, PO 10 mg/kg, individual animals 7-9): 15 min
- AUClast [1]: 127 ng·h/mL and 101 ng·h/mL
- AUC∞ [1]: 134 ng·h/mL and 106 ng·h/mL
- Bioavailability [1]: 63.7% and 50.6%
- Dose-normalized AUClast [1]: 9.92 kg·ng·h/mL/mg and 12.7 kg·ng·h/mL/mg and 10.1 kg·ng·h/mL/mg
- Dose-normalized AUC∞ [1]: 10.1 kg·ng·h/mL/mg and 13.4 kg·ng·h/mL/mg and 10.6 kg·ng·h/mL/mg
- MRTlast [1]: 57 min and 55 min
- cmax [1]: 106 ng/mL and 125 ng/mL
- t1/2 [1]: 51.7 min and 54.1 min
- AUClast [2]: 22.2 ng·h/mL and 17.5 ng·h/mL
- AUC∞ [2]: 24.7 ng·h/mL and 19.6 ng·h/mL
- CL [2]: 40.4 L/h/kg and 51.0 L/h/kg
- MRTlast [2]: 23.9 min and 28.6 min
- Vss [2]: 27.2 L/kg and 37.7 L/kg
- c0 [2]: 75.8 ng/mL and 103 ng/mL and 49.1 ng/mL
- t1/2 [2]: 46.8 min and 38.2 min
- AUClast [3]: 15.1 ng·h/mL and 24.5 ng·h/mL
- Bioavailability [3]: 7.56% and 12.3%
- Dose-normalized AUClast [3]: 2.32 kg·ng·h/mL/mg and 1.51 kg·ng·h/mL/mg and 2.45 kg·ng·h/mL/mg
- MRTlast [3]: 100 min and 103 min and 46 min
- cmax [3]: 8.76 ng/mL and 17.8 ng/mL and 10.9 ng/mL
- Adverse reactions (mouse, 1 mg/kg IV, 10 mg/kg IP or PO, cassette): No adverse reactions were observed
- Individual blood concentration (mouse, IP 10 mg/kg, 0.083 h, animals 4-6, 10 mg/kg): 28.2 ng/mL and 68.6 ng/mL and 64.5 ng/mL
- Individual blood concentration (mouse, IP 10 mg/kg, 0.25 h, animals 4-6, 10 mg/kg): 106 ng/mL and 125 ng/mL
- Individual blood concentration (mouse, IP 10 mg/kg, 0.50 h, animals 4-6, 10 mg/kg): 94.4 ng/mL and 56.3 ng/mL
- Individual blood concentration (mouse, IP 10 mg/kg, 1.0 h, animals 4-6, 10 mg/kg): 48.0 ng/mL and 32.1 ng/mL
- Individual blood concentration (mouse, IP 10 mg/kg, 2.0 h, animals 4-6, 10 mg/kg): 13.3 ng/mL and 12.1 ng/mL
- Individual blood concentration (mouse, IP 10 mg/kg, 4.0 h, animals 4-6, 10 mg/kg): 1.79 ng/mL and 5.29 ng/mL and 3.62 ng/mL
- Individual blood concentration (mouse, IP 10 mg/kg, 8.0 h, animals 4-6): BLOQ (BLOQ: Below the limit of quantitation (1 ng/mL))
- Individual blood concentration (mouse, IV 1 mg/kg, 0.083 h, animals 1-3, 1 mg/kg): 54.4 ng/mL and 33.4 ng/mL
- Individual blood concentration (mouse, IV 1 mg/kg, 0.25 h, animals 1-3, 1 mg/kg): 15.2 ng/mL and 15.4 ng/mL
- Individual blood concentration (mouse, IV 1 mg/kg, 0.50 h, animals 1-3, 1 mg/kg): 8.57 ng/mL and 10.9 ng/mL
- Individual blood concentration (mouse, IV 1 mg/kg, 1.0 h, animals 1-3, 1 mg/kg): 4.93 ng/mL and 3.76 ng/mL
- Individual blood concentration (mouse, IV 1 mg/kg, 2.0 h, animals 1-3, 1 mg/kg): 2.21 ng/mL and 2.30 ng/mL
- Individual blood concentration (mouse, IV 1 mg/kg, 4.0 h, animals 1-3): BLOQ (BLOQ: Below the limit of quantitation (1 ng/mL))
- Individual blood concentration (mouse, IV 1 mg/kg, 8.0 h, animals 1-3): BLOQ (BLOQ: Below the limit of quantitation (1 ng/mL))
- Individual blood concentration (mouse, PO 10 mg/kg, 0.25 h, animals 7-9, 10 mg/kg): 8.76 ng/mL and 17.8 ng/mL and 10.9 ng/mL
- Individual blood concentration (mouse, PO 10 mg/kg, 0.50 h, animals 7-9, 10 mg/kg): 7.95 ng/mL and 12.4 ng/mL and 5.89 ng/mL
- Individual blood concentration (mouse, PO 10 mg/kg, 1.0 h, animals 7-9, 10 mg/kg): 7.01 ng/mL and 5.15 ng/mL and 3.45 ng/mL
- Individual blood concentration (mouse, PO 10 mg/kg, 2.0 h, animals 7-9, 10 mg/kg): 6.19 ng/mL and 4.28 ng/mL and 10.5 ng/mL
- Individual blood concentration (mouse, PO 10 mg/kg, 4.0 h, animals 7-9, 10 mg/kg): 3.44 ng/mL and BLOQ (BLOQ: Below the limit of quantitation (1 ng/mL)) and 1.26 ng/mL
- Individual blood concentration (mouse, PO 10 mg/kg, 8.0 h, animals 7-9): BLOQ (BLOQ: Below the limit of quantitation (1 ng/mL))
- Dose-normalized AUClast [4]: 10.9 kg·ng·h/mL/mg
- Dose-normalized AUC∞ [4]: 11.4 kg·ng·h/mL/mg
- Dose-normalized AUClast (whole blood, male CD-1 mouse, PO 10 mg/kg, average): 2.09 kg·ng·h/mL/mg
